Measured values taken from patent US7704982B2, “2-methylene-19-nor-1α-hydroxy-17-ene-homopregnacalciferol and its uses” (Wisconsin Alumni Research Foundation, priority 2004, dated 2010).

Key:
[1] = Intestinal calcium transport, everted gut sac method, in vitamin D-deficient rats; format: in vivo, Sprague-Dawley rats; details: FIG. 6
Description: (§1) Male, weanling Sprague-Dawley rats were placed on Diet 11 (0.47% Ca)+AEK for one week followed by Diet 11 (0.02% Ca)+AEK for 3 weeks. The rats were then switched to the same diet containing 0.47% Ca for one week followed by two weeks on the same diet containing 0.02% Ca. Dose administration began during the last week on 0.02% calcium diet. Four consecutive ip doses were given approximately 24 hours apart. Twenty-four hours after the last dose, blood was collected from the severed neck and the concentration of serum calcium determined by atomic absorption spectrometry as a measure of bone calcium mobilization. The first 10 cm of the intestine was also collected for intestinal calcium transport analysis using the everted gut sac method.

[2] = Bone calcium mobilization (serum calcium) in vitamin D-deficient rats; format: in vivo, Sprague-Dawley rats; details: 0.02% Ca diet
Description: as §1

[3] = molecular target: T1, full-length recombinant rat vitamin D receptor (Rattus norvegicus, UniProt P13053); assay: Vitamin D receptor competitive binding with [3H]-1,25(OH)2D3; details: full-length recombinant rat VDR; FIG. 1; read-out: Ki, competition with [3H]-1,25(OH)2D3 for binding to the vitamin D receptor
T1 construct: Full-length recombinant rat receptor was expressed in E. coli; histidine tag (C); made in house; host or cells: E. coli BL21 (DE3) Codon Plus RIL
T1 sequence (P13053 1-423): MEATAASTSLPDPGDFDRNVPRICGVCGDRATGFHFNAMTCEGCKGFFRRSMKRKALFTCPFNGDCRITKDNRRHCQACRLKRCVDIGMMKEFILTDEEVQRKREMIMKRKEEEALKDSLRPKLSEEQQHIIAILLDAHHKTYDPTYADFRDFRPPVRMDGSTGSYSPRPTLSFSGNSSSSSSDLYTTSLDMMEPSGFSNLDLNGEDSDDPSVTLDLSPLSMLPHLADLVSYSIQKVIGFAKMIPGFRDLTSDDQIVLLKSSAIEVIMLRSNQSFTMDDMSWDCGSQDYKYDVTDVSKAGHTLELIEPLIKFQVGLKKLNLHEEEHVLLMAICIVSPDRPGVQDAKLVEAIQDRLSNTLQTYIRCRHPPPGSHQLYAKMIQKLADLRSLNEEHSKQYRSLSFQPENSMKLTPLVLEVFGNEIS
Description: Full-length recombinant rat receptor was expressed in E. coli BL21 (DE3) Codon Plus RIL cells and purified to homogeneity using two different column chromatography systems. The first system was a nickel affinity resin that utilizes the C-terminal histidine tag on this protein. The protein that was eluted from this resin was further purified using ion exchange chromatography (S-Sepharose Fast Flow). Aliquots of the purified protein were quick frozen in liquid nitrogen and stored at −80° C. until use. For use in binding assays, the protein was diluted in TEDK50 (50 mM Tris, 1.5 mM EDTA, pH7.4, 5 mM DTT, 150 mM KCl) with 0.1% Chaps detergent. The receptor protein and ligand concentration were optimized such that no more than 20% of the added radiolabeled ligand was bound to the receptor.
Radiolabeled and unlabeled ligands were added to 100 mcl of the diluted protein at a final ethanol concentration of ≦10%, mixed and incubated overnight on ice to reach binding equilibrium. The following day, 100 mcl of hydroxylapatite slurry (50%) was added to each tube and mixed at 10-minute intervals for 30 minutes. The hydroxylapaptite was collected by centrifugation and then washed three times with Tris-EDTA buffer (50 mM Tris, 1.5 mM EDTA, pH 7.4) containing 0.5% Titron X-100. […] Total binding was determined from the tubes containing only radiolabeled ligand.

[4] = test system: 24-hydroxylase (24Ohase) gene promoter; assay: In vitro transcription assay (luciferase reporter) in ROS 17/2.8 (bone) cells; format: cell-based; details: ROS 17/2.8 cells, 24Ohase promoter-luciferase, 16 h; FIG. 3; read-out: EC50, transcriptional activity in bone cells
Description: Transcription activity was measured in ROS 17/2.8 (bone) cells that were stably transfected with a 24-hydroxylase (24Ohase) gene promoter upstream of a luciferase reporter gene (Arbour et al., 1998). Cells were given a range of doses. Sixteen hours after dosing the cells were harvested and luciferase activities were measured using a luminometer.
RLU=relative luciferase units.

[5] = test system: Human promyelocytic leukemia (HL60) cells; assay: HL-60 cell differentiation (nitro blue tetrazolium reduction); format: cell-based; details: 4 days, FIG. 2
Description: The study drugs were dissolved in ethanol and the concentrations determined using UV spectrophotometry. Serial dilutions were prepared so that a range of drug concentrations could be tested without changing the final concentration of ethanol (≦0.2%) present in the cell cultures.
Human promyelocytic leukemia (HL60) cells were grown in RPMI-1640 medium containing 10% fetal bovine serum. The cells were incubated at 37° C. in the presence of 5% CO2.
HL60 cells were plated at 1.2×10^5 cells/ml. Eighteen hours after plating, cells in duplicate were treated with drug. Four days later, the cells were harvested and a nitro blue tetrazolium reduction assay was performed (Collins et al., 1979; J. Exp. Med. 149:969-974). The percentage of differentiated cells was determined by counting a total of 200 cells and recording the number that contained intracellular black-blue formazan deposits. Verification of differentiation to monocytic cells was determined by measuring phagocytic activity (data not shown).

Row | SMILES | intestinal calcium transport ([1]; 780 pmol/day ip for 4 days) | intestinal calcium transport ([1]; 2340 pmol/day ip for 4 days) | intestinal calcium transport ([1]; 7020 pmol/day ip for 4 days) | mobilization of bone calcium (serum calcium) ([2]; 780 pmol/day ip for 4 consecutive days) | mobilization of bone calcium (serum calcium) ([2]; 2340 pmol/day ip for 4 consecutive days) | mobilization of bone calcium (serum calcium) ([2]; 7020 pmol/day ip for 4 consecutive days) | Ki [3] [nM] | EC50 [4] [nM] | EC50 ([5]; Homo sapiens, HL-60, 96 h) [nM] | serum calcium levels (bone calcium mobilization) ([2]; all dosages tested (FIG. 4)) | EC50 [5] [nM]
1 | C=C1[C@H](O)CC(=C/C=C2\CCC[C@]3(C)C(=C(C)C)CCC23)C[C@H]1O (stereo partly drawn) [VIT-I, 2-methylene-19-nor-1α-hydroxy-17-ene-homopregnacalciferol] | does not promote intestinal calcium transport | does not promote intestinal calcium transport | does not promote intestinal calcium transport | did not result in mobilization of bone calcium | without any substantial effect | without any substantial effect | 0.19 | 6 | 13 |  | 
2 | C=C1/C(=C\C=C2/CCC[C@]3(C)[C@@H]([C@H](C)CCCC(C)(C)O)CC[C@@H]23)C[C@@H](O)C[C@@H]1O [1,25(OH)2D3, 1α,25-dihydroxyvitamin D3, reference compound] | promotes a significant increase |  |  |  |  |  |  | 0.22 |  | increased serum calcium levels | 6.2
